Molecular target: Lysine-specific demethylase 1 (LSD1) (Homo sapiens, UniProt O60341)
Experiment: in vitro LSD1 activity assay
Format: biochemical
Conditions: read-out: % inhibition at 1000 nM

C=C1C(=O)O[C@H]2[C@H]1[C@H](OC(=O)/C(C)=C/CO)CC(=C)[C@@H]1C=C[C@@](C)(O)[C@H]21 [eupalinilide B]
inhibition at 1 µM: 78%

Reference: publication PMC8811433 (The Journal of International Medical Research, 2022)
